Literature values as cited in patent publication US20240122889A1, “DRY POWDER COMPOSITIONS OF TREPROSTINIL PRODRUGS AND METHODS OF USE THEREOF” (Insmed Incorporated, priority 0001, published 2024).

Test system: conscious male guinea pigs

Threshold dose that causes cough (inhaled TRE given by nebulization): 1.2 μg TRE/kg body weight
Timing of cough (nebulized, time of exposure): ≤ 10 min
Compound: CCCCC[C@H](O)CC[C@@H]1[C@H]2Cc3cccc(OCC(=O)O)c3C[C@H]2C[C@H]1O [TRE, Treprostinil]
